Source: patent US9340590B2 (priority 2011, dated 2016)
Positions of bridges follow the written chain, without caps; N, C: chain ends. Non-standard residues stand in square brackets, D forms with d. Residues, ends and D or L forms follow the SMILES beside them. 1Nal = N[C@@H](Cc1cccc2ccccc12)C(=O)O

Tests used:
Experiment in all cases: cell-based
[1] = biological target: hNav1.3 (Homo sapiens, UniProt Q9NY46); settings: IonWorks Quattro, use-dependent block, hNav1.3; read-out: IWQ Use Nav1.3
[2] = biological target: hNav1.5 (Homo sapiens, UniProt Q14524); settings: IonWorks Quattro, use-dependent block, hNav1.5; read-out: IWQ Use Nav1.5
[3] = biological target: hNav1.7 (Homo sapiens, UniProt Q15858); format: cell-based; settings: IonWorks Quattro, use-dependent block, hNav1.7; read-out: IWQ Use Nav1.7
Sequence of hNav1.7 (Q15858 whole entry, looked up): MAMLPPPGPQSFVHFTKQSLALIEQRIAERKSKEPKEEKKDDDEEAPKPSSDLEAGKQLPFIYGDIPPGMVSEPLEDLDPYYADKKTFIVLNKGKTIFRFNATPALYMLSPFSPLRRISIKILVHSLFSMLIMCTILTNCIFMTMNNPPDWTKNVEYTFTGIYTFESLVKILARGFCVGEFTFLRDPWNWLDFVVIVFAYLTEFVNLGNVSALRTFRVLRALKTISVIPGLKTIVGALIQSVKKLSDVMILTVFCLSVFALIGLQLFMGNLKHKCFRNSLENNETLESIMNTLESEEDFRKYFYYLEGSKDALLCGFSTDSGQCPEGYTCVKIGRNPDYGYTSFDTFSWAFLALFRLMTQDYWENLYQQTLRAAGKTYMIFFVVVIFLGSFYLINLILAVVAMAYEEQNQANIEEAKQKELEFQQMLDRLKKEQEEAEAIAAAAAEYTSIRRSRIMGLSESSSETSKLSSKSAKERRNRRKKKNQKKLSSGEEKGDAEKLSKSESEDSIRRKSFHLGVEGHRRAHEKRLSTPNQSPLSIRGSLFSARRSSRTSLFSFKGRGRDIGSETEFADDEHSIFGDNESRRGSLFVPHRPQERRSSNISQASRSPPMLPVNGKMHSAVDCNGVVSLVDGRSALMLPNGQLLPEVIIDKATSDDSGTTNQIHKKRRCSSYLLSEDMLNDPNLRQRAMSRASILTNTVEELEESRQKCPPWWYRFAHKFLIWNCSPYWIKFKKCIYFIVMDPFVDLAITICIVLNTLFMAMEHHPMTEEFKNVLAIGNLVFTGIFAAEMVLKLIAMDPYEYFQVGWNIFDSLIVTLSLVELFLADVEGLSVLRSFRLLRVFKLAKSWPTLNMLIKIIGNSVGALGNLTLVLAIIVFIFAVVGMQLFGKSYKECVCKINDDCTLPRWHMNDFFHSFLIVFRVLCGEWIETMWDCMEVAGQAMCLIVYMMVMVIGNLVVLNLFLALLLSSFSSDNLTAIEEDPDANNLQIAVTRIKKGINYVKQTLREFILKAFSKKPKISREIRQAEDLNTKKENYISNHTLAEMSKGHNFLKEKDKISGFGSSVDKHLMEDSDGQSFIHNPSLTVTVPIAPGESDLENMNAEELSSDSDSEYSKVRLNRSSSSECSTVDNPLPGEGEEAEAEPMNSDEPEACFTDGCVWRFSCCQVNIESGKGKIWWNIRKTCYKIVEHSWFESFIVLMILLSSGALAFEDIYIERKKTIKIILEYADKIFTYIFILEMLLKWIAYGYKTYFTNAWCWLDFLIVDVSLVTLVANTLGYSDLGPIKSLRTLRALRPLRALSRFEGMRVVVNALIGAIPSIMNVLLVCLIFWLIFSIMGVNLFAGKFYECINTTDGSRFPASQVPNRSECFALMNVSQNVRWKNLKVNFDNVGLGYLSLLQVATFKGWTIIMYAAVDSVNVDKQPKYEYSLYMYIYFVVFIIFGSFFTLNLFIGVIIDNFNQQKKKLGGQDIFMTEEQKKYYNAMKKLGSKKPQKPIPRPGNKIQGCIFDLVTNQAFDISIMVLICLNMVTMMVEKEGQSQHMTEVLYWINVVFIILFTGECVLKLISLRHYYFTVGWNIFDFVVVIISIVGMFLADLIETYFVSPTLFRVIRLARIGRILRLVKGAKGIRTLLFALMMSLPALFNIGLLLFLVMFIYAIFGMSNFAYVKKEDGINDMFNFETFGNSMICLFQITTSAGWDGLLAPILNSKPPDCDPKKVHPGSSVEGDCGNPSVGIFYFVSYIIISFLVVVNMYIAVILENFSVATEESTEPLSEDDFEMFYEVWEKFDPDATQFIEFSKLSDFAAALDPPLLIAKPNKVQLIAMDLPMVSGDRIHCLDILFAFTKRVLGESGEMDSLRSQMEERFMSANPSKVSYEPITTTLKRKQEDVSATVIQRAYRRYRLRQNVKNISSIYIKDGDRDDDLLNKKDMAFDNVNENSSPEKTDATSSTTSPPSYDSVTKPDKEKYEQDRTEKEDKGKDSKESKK

Sequence of hNav1.3 (Q9NY46 whole entry, looked up): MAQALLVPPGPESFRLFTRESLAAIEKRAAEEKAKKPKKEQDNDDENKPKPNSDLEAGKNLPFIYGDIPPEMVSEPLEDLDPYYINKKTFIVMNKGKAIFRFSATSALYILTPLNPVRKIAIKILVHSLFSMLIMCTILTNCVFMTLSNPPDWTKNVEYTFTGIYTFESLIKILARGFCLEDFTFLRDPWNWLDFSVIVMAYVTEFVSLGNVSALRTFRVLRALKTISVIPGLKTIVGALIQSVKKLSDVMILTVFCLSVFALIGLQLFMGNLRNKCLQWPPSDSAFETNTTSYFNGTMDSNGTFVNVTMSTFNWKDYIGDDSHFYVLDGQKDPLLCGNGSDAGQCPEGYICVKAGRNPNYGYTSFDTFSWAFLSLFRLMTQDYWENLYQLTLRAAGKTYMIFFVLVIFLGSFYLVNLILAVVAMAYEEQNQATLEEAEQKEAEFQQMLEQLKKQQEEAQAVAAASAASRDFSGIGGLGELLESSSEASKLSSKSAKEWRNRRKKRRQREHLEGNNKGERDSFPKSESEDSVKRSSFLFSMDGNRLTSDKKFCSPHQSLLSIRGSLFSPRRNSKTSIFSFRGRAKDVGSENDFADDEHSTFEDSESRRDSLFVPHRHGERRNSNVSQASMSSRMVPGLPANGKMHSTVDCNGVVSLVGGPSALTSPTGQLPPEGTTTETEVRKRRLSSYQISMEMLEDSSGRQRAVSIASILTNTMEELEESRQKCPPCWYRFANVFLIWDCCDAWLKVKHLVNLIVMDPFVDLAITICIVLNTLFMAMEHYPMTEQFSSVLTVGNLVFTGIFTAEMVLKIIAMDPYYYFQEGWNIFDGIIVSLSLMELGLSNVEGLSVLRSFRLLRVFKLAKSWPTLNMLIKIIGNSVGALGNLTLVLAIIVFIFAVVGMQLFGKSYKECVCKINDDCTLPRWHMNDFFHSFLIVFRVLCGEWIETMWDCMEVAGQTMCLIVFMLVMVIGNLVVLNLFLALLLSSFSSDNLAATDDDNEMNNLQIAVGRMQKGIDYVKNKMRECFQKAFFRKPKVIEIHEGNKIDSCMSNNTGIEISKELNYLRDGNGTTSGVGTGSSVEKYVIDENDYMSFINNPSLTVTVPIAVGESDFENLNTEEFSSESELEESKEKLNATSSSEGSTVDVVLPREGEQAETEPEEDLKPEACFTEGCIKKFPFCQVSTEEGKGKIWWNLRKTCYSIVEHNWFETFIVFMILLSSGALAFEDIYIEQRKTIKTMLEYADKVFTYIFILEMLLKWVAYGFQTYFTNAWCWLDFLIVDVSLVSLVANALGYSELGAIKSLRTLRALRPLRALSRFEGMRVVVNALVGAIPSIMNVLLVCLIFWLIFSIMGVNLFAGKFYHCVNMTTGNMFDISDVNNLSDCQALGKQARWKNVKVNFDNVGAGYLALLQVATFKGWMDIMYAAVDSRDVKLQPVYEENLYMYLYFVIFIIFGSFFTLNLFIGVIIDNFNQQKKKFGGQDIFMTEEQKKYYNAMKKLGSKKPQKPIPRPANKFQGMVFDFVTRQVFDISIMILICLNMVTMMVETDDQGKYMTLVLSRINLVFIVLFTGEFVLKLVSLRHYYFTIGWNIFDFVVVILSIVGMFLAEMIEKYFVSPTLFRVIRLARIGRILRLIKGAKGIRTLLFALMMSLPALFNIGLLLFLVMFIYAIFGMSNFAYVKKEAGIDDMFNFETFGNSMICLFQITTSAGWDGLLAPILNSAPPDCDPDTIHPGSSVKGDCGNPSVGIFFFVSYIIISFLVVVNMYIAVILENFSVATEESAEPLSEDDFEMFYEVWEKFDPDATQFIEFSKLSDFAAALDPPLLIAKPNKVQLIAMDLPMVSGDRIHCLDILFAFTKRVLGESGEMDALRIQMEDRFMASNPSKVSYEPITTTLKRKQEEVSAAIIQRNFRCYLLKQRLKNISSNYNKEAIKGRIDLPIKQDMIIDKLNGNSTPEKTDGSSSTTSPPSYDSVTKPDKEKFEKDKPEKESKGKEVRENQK

SMILES: CC[C@H](C)[C@@H]1NC(=O)[C@@H]2CSSC[C@@H]3NC(=O)[C@H](C(C)C)NC(=O)[C@H](CC(C)C)NC(=O)[C@H](CC(N)=O)NC(=O)[C@@H]4CCCN4C(=O)[C@H](CCCNC(=N)N)NC(=O)[C@H](CSSC[C@H](NC(=O)[C@@H](N)CC(=O)O)C(=O)N[C@@H](CC(C)C)C(=O)NCC(=O)N[C@@H](Cc4ccccc4)C(=O)N[C@@H](Cc4c[nH]c5ccccc45)C(=O)N[C@@H](CCCNC(=N)N)C(=O)N[C@@H](CCCCN)C(=O)N2)NC(=O)[C@H](CSSC[C@@H](C(=O)N[C@@H](CCCCN)C(=O)N[C@@H](Cc2ccc(O)cc2)C(=O)N[C@H](C(=O)N[C@@H](Cc2ccccc2)C(N)=O)C(C)C)NC(=O)[C@H](Cc2c[nH]c4ccccc24)NC(=O)[C@H](CCCNC(=N)N)NC(=O)[C@H](Cc2c[nH]cn2)NC(=O)[C@H]([C@@H](C)O)NC(=O)[C@H](CCCNC(=N)N)NC(=O)[C@H](CO)NC3=O)NC(=O)[C@H](CCCCN)NC(=O)[C@H](CC(=O)O)NC(=O)[C@H](CC(N)=O)NC(=O)[C@H](CC(=O)O)NC(=O)[C@@H]2CCCN2C1=O [compound 448] (H-DCLGFWRKCIPDNDKCCRPNLVCSRTHRWCKYVF-NH2; disulfide 2-17, 9-23, 16-30)
- IC50 [1]: 10 nM
- IC50 [2]: 2910 nM
- IC50 [3]: 10 nM

SMILES: CC[C@H](C)[C@@H]1NC(=O)[C@@H]2CSSC[C@@H]3NC(=O)[C@H](C(C)C)NC(=O)[C@H](CC(C)C)NC(=O)[C@H](CC(N)=O)NC(=O)[C@@H]4CCCN4C(=O)[C@H](CCCNC(=N)N)NC(=O)[C@H](CSSC[C@H](NC(=O)[C@@H](N)CC(=O)O)C(=O)N[C@@H](CC(C)C)C(=O)NCC(=O)N[C@@H](Cc4ccccc4)C(=O)N[C@@H](Cc4c[nH]c5ccccc45)C(=O)N[C@@H](CCCNC(=N)N)C(=O)N[C@@H](CCCCN)C(=O)N2)NC(=O)[C@H](CSSC[C@@H](C(=O)N[C@@H](CCCCN)C(=O)N[C@@H](Cc2c[nH]c4ccccc24)C(=O)N[C@H](C(=O)N[C@@H](Cc2ccccc2)C(N)=O)C(C)C)NC(=O)[C@H](Cc2c[nH]c4ccccc24)NC(=O)[C@H](CCCCN)NC(=O)[C@H](Cc2c[nH]cn2)NC(=O)[C@H]([C@@H](C)O)NC(=O)[C@H](CCCNC(=N)N)NC(=O)[C@H](CO)NC3=O)NC(=O)[C@H](CCCCN)NC(=O)[C@H](CC(=O)O)NC(=O)[C@H](CC(N)=O)NC(=O)[C@H](CC(=O)O)NC(=O)[C@@H]2CCCN2C1=O [compound 449] (H-DCLGFWRKCIPDNDKCCRPNLVCSRTHKWCKWVF-NH2; disulfide 2-17, 9-23, 16-30)
- IC50 [1]: 10 nM
- IC50 [2]: 2930 nM
- IC50 [3]: 30 nM

SMILES: CC[C@H](C)[C@@H]1NC(=O)[C@@H]2CSSC[C@@H]3NC(=O)[C@H](C(C)C)NC(=O)[C@H](CC(C)C)NC(=O)[C@H](CC(N)=O)NC(=O)[C@@H]4CCCN4C(=O)[C@H](CCCNC(=N)N)NC(=O)[C@H](CSSC[C@H](NC(=O)[C@@H](N)CC(=O)O)C(=O)N[C@@H](CC(C)C)C(=O)NCC(=O)N[C@@H](Cc4ccccc4)C(=O)N[C@@H](CCSC)C(=O)N[C@@H](CCCNC(=N)N)C(=O)N[C@@H](CCCCN)C(=O)N2)NC(=O)[C@H](CSSC[C@@H](C(=O)N[C@@H](CCCCN)C(=O)N[C@@H](Cc2c[nH]c4ccccc24)C(=O)N[C@@H](Cc2c[nH]c4ccccc24)C(=O)N[C@@H](Cc2ccccc2)C(N)=O)NC(=O)[C@H](Cc2c[nH]c4ccccc24)NC(=O)[C@H](CCCCN)NC(=O)[C@H](Cc2c[nH]cn2)NC(=O)[C@H]([C@@H](C)O)NC(=O)[C@H](CCCNC(=N)N)NC(=O)[C@H](CO)NC3=O)NC(=O)[C@H](CCCCN)NC(=O)[C@H](CC(=O)O)NC(=O)[C@H](CC(N)=O)NC(=O)[C@H](CC(=O)O)NC(=O)[C@@H]2CCCN2C1=O [compound 450] (H-DCLGFMRKCIPDNDKCCRPNLVCSRTHKWCKWWF-NH2; disulfide 2-17, 9-23, 16-30)
- IC50 [1]: 30 nM
- IC50 [2]: 11500 nM
- IC50 [3]: 50 nM

SMILES: CSCC[C@@H]1NC(=O)[C@H](Cc2ccccc2)NC(=O)CNC(=O)[C@H](CC(C)C)NC(=O)[C@@H](NC(=O)[C@@H](N)CC(=O)O)CSSC[C@@H]2NC(=O)[C@@H]3CSSC[C@@H](C(=O)N[C@@H](CCCCN)C(=O)N[C@@H](Cc4cccc5ccccc45)C(=O)N[C@H](C(=O)N[C@@H](Cc4ccccc4)C(N)=O)C(C)C)NC(=O)[C@H](Cc4c[nH]c5ccccc45)NC(=O)[C@H](CCCCN)NC(=O)[C@H](Cc4c[nH]cn4)NC(=O)[C@H]([C@@H](C)O)NC(=O)[C@H](CCCNC(=N)N)NC(=O)[C@H](CO)NC(=O)[C@H](CSSC[C@H](NC(=O)[C@H](CCCCN)NC(=O)[C@H](CCCNC(=N)N)NC1=O)C(=O)N[C@@H](Cc1cccc4ccccc14)C(=O)N1CCC[C@H]1C(=O)N[C@@H](CC(=O)O)C(=O)N[C@@H](CC(N)=O)C(=O)N[C@@H](CC(=O)O)C(=O)N[C@@H](CCCCN)C(=O)N3)NC(=O)[C@H](C(C)C)NC(=O)[C@H](CC(C)C)NC(=O)[C@H](CC(N)=O)NC(=O)[C@@H]1CCCN1C(=O)[C@H](CCCNC(=N)N)NC2=O [compound 452]
- IC50 [1]: 3 nM
- IC50 [2]: > 5000 nM
- IC50 [3]: 5 nM

SMILES: CC[C@H](C)[C@@H]1NC(=O)[C@@H]2CSSC[C@@H]3NC(=O)[C@H](C(C)C)NC(=O)[C@H](CC(C)C)NC(=O)[C@H](CC(N)=O)NC(=O)[C@@H]4CCCN4C(=O)[C@H](CCCNC(=N)N)NC(=O)[C@H](CSSC[C@H](NC(=O)[C@@H](N)CC(=O)O)C(=O)N[C@@H](CC(C)C)C(=O)NCC(=O)N[C@@H](Cc4ccccc4)C(=O)N[C@@H](CCSC)C(=O)N[C@@H](CCCNC(=N)N)C(=O)N[C@@H](CCCCN)C(=O)N2)NC(=O)[C@H](CSSC[C@@H](C(=O)N[C@@H](CCCCN)C(=O)N[C@@H](Cc2cccc4ccccc24)C(=O)N[C@H](C(=O)N[C@@H](Cc2ccccc2)C(N)=O)C(C)C)NC(=O)[C@H](Cc2c[nH]c4ccccc24)NC(=O)[C@H](CCCCN)NC(=O)[C@H](Cc2c[nH]cn2)NC(=O)[C@H](CC(C)C)NC(=O)[C@H](CCCNC(=N)N)NC(=O)[C@H](CO)NC3=O)NC(=O)[C@H](CCCCN)NC(=O)[C@H](CC(=O)O)NC(=O)[C@H](CC(N)=O)NC(=O)[C@H](CC(=O)O)NC(=O)[C@@H]2CCCN2C1=O [compound 453] (H-DCLGFMRKCIPDNDKCCRPNLVCSRLHKWCK[1Nal]VF-NH2; disulfide 2-17, 9-23, 16-30)
- IC50 [1]: 10 nM
- IC50 [2]: > 5000 nM
- IC50 [3]: 10 nM

SMILES: CC[C@H](C)[C@@H]1NC(=O)[C@@H]2CSSC[C@@H]3NC(=O)[C@H](C(C)C)NC(=O)[C@H](CC(C)C)NC(=O)[C@H](CC(N)=O)NC(=O)[C@@H]4CCCN4C(=O)[C@H](CCCNC(=N)N)NC(=O)[C@H](CSSC[C@H](NC(=O)[C@@H](N)CC(=O)O)C(=O)N[C@@H](CC(C)C)C(=O)NCC(=O)N[C@@H](Cc4ccccc4)C(=O)N[C@@H](CCSC)C(=O)N[C@@H](CCCNC(=N)N)C(=O)N[C@@H](CCCCN)C(=O)N2)NC(=O)[C@H](CSSC[C@@H](C(=O)N[C@@H](CCCCN)C(=O)N[C@@H](Cc2c[nH]c4ccccc24)C(=O)N[C@@H](Cc2cccc4ccccc24)C(=O)N[C@@H](Cc2ccccc2)C(N)=O)NC(=O)[C@H](Cc2c[nH]c4ccccc24)NC(=O)[C@H](CCCCN)NC(=O)[C@H](Cc2c[nH]cn2)NC(=O)[C@H]([C@@H](C)O)NC(=O)[C@H](CCCNC(=N)N)NC(=O)[C@H](CO)NC3=O)NC(=O)[C@H](CCCCN)NC(=O)[C@H](CC(=O)O)NC(=O)[C@H](CC(N)=O)NC(=O)[C@H](CC(=O)O)NC(=O)[C@@H]2CCCN2C1=O [compound 455] (H-DCLGFMRKCIPDNDKCCRPNLVCSRTHKWCKW[1Nal]F-NH2; disulfide 2-17, 9-23, 16-30)
- IC50 [1]: 40 nM
- IC50 [2]: > 5000 nM
- IC50 [3]: 20 nM

SMILES: CC[C@H](C)[C@@H]1NC(=O)[C@@H]2CSSC[C@@H]3NC(=O)[C@H](C(C)C)NC(=O)[C@H](CC(C)C)NC(=O)[C@H](CC(N)=O)NC(=O)[C@@H]4CCCN4C(=O)[C@H](CCCNC(=N)N)NC(=O)[C@H](CSSC[C@H](NC(=O)[C@@H](N)CC(=O)O)C(=O)N[C@@H](CC(C)C)C(=O)NCC(=O)N[C@@H](Cc4ccccc4)C(=O)N[C@@H](Cc4c[nH]c5ccccc45)C(=O)N[C@@H](CCCNC(=N)N)C(=O)N[C@@H](CCCCN)C(=O)N2)NC(=O)[C@H](CSSC[C@@H](C(=O)N[C@@H](CCCCN)C(=O)N[C@@H](Cc2ccc(O)cc2)C(=O)N[C@H](C(=O)N[C@@H](Cc2ccccc2)C(N)=O)C(C)C)NC(=O)[C@H](Cc2c[nH]c4ccccc24)NC(=O)[C@H](CCCCN)NC(=O)[C@H](Cc2c[nH]cn2)NC(=O)[C@H](CC(C)C)NC(=O)[C@H](CCCNC(=N)N)NC(=O)[C@H](CO)NC3=O)NC(=O)[C@H](CCCCN)NC(=O)[C@H](CC(=O)O)NC(=O)[C@H](CC(N)=O)NC(=O)[C@H](CC(=O)O)NC(=O)[C@@H]2CCCN2C1=O [compound 456] (H-DCLGFWRKCIPDNDKCCRPNLVCSRLHKWCKYVF-NH2; disulfide 2-17, 9-23, 16-30)
- IC50 [1]: 10 nM
- IC50 [2]: > 5000 nM
- IC50 [3]: 30 nM

SMILES: CC[C@H](C)[C@@H]1NC(=O)[C@@H]2CSSC[C@@H]3NC(=O)[C@H](C(C)C)NC(=O)[C@H](CC(C)C)NC(=O)[C@H](CC(N)=O)NC(=O)[C@@H]4CCCN4C(=O)[C@H](CCCNC(=N)N)NC(=O)[C@H](CSSC[C@H](NC(=O)[C@@H](N)CC(=O)O)C(=O)N[C@@H](CC(C)C)C(=O)NCC(=O)N[C@@H](Cc4ccccc4)C(=O)N[C@@H](CCSC)C(=O)N[C@@H](CCCNC(=N)N)C(=O)N[C@@H](CCCCN)C(=O)N2)NC(=O)[C@H](CSSC[C@@H](C(=O)N[C@@H](CCCCN)C(=O)N[C@@H](Cc2cccc4ccccc24)C(=O)N[C@@H](Cc2c[nH]c4ccccc24)C(=O)N[C@@H](Cc2ccccc2)C(N)=O)NC(=O)[C@H](Cc2c[nH]c4ccccc24)NC(=O)[C@H](CCCCN)NC(=O)[C@H](Cc2c[nH]cn2)NC(=O)[C@H]([C@@H](C)O)NC(=O)[C@H](CCCNC(=N)N)NC(=O)[C@H](CO)NC3=O)NC(=O)[C@H](CCCCN)NC(=O)[C@H](CC(=O)O)NC(=O)[C@H](CC(N)=O)NC(=O)[C@H](CC(=O)O)NC(=O)[C@@H]2CCCN2C1=O [compound 460] (H-DCLGFMRKCIPDNDKCCRPNLVCSRTHKWCK[1Nal]WF-NH2; disulfide 2-17, 9-23, 16-30)
- IC50 [1]: 30 nM
- IC50 [2]: > 5000 nM
- IC50 [3]: 80 nM
